Source: article PMC9189904, “Functional Properties of Two Distinct PTH1R Mutants Associated With Either Skeletal Defects or Pseudohypoparathyroidism” (JBMR Plus, 2022)
Numbering of substitutions follows the chain as printed. Non-standard residues stand in square brackets, D forms with d. Residues, ends and D or L forms follow the SMILES beside them. No end group written: not given here. hArg = N=C(N)NCCCC[C@H](N)C(=O)O; Ac5c = NC1(C(=O)O)CCCC1; Aib = CC(C)(N)C(=O)O

Key:
[1] = biological target: T1, PTH1R‐R186H (Homo sapiens, UniProt Q03431, R186H); assay: GloSensor cAMP signaling assay in transiently transfected GS-22a cells; assay type: cell-based; conditions: for EC50: Table 2, N-terminal analogs, means of four or three (M-PTH(1-11)) experiments, each in duplicate; for EC50 / pEC50: GS-22a cells; for pEC50: Suppl. Table 2, full-length ligands, mean ± SEM of three experiments; for Emax, %: Suppl. Table 2, percent of maximum response of the same ligand on PTH1R-WT, three experiments
T1 construct: expressed in transfected cells; plasmid TG-907 made by VectorBuilder
T1 sequence (Q03431 27-593 E90Y/S91D/E92V/E93P/K95Y/E96A/R186H): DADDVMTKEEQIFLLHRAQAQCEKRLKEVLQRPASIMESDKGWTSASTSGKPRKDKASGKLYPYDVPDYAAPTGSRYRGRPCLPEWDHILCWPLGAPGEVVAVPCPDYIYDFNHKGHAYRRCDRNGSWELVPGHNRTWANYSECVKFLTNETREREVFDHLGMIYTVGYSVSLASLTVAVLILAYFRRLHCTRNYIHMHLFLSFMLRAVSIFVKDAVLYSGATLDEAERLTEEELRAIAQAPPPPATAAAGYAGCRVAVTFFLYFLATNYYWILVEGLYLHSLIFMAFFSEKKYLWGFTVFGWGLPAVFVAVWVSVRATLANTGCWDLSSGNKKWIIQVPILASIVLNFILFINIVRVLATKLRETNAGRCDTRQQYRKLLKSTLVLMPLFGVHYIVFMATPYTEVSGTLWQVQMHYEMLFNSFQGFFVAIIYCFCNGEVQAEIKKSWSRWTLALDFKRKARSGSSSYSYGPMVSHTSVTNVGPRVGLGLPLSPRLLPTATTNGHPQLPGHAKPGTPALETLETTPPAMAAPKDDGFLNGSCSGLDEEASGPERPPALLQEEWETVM
Description: (§1) GS‐22a cells are derived from HEK293 cells (American Type Culture Collection [ATCC], Manassas, VA, USA; CRL‐1573) by stably transfection with the luciferase‐based GloSensor (Promega, San Luis Obispo, CA, USA) cAMP reporter plasmid pGloSensor‐22F. The cells were cultured in Dulbecco's modified Eagle medium (DMEM) supplemented with fetal bovine serum (10%) in a humidified incubator containing 5% CO2 and set at 37°C, and seeded into 96‐well or six‐well plates for transient DNA transfection and functional assays. Cells were transfected when the monolayers were 85%–95% of confluency using Lipofectamine™ 2000 (Thermo Fisher Scientific, Waltham, MA, USA) and 100 ng of DNA per well for 96‐well plates and 1000 ng of DNA per well for six‐well plates. Assays were performed 48 hours after transfection, and media was changed 2–4 hours prior to assay.
(§2) PTH1R‐mediated cAMP signaling was assessed via the GloSensor cAMP reporter in GS‐22a cells in white 96‐well plates. Assays were performed at ambient room temperature. For each plate, the media was replaced with CO2‐independent media (Thermo Fisher Scientific; Cat. No. 18045088) containing luciferin (0.5mM) and the plate was placed into a PerkinElmer Envision plate reader and cAMP‐dependent luminescence, as counts per second (cps), was measured at 2‐minute intervals for 15 minutes, during which time luciferin uptake occurred and luminescence reached a near steady‐state baseline. The plate was then removed from the plate reader, media (vehicle) or test ligands were added at varying concentrations, and luminescence was again measured at 2‐minute intervals for an additional 30–60 minutes.
(§3) Data were processed using Microsoft Excel and GraphPad Prism 8.0 software and analyzed statistically using a Student's t test (two‐tailed and unequal variances). Dose–response curves were fit to the data by using a three‐parameter sigmoidal dose–response equation with nonlinear regression, which yielded the reported response parameters of potency (EC50), efficacy (Emax), and […].

[2] = biological target: T2, PTH1R‐V204E (Homo sapiens, UniProt Q03431, V204E); assay: as above; assay type: cell-based; conditions: for EC50: Table 2, N-terminal analogs, means of four or three (M-PTH(1-11)) experiments, each in duplicate; for EC50 / pEC50: GS-22a cells; for pEC50: Suppl. Table 2, full-length ligands, mean ± SEM of three experiments; for Emax, %: Suppl. Table 2, percent of maximum response of the same ligand on PTH1R-WT, three experiments
T2 construct: expressed in transfected cells; plasmid TG-928 made by VectorBuilder
T2 sequence (Q03431 27-593 E90Y/S91D/E92V/E93P/K95Y/E96A/V204E): T1 sequence (Q03431 27-593 E90Y/S91D/E92V/E93P/K95Y/E96A/R186H) with H160R, V178E
Description: as §1, §2, §3

[3] = biological target: T3, PTH1R‐WT (Homo sapiens, UniProt Q03431); assay: as above; assay type: cell-based; conditions: for EC50: Table 2, N-terminal analogs, means of four or three (M-PTH(1-11)) experiments, each in duplicate; for EC50 / pEC50: GS-22a cells; for Emax: Table 2, percent of maximum response of the same ligand on PTHR1-WT, four or three (M-PTH(1-11)) experiments; for pEC50: Suppl. Table 2, full-length ligands, mean ± SEM of three experiments, SEM; for Emax, %: Suppl. Table 2, percent of maximum response of the same ligand on PTH1R-WT, three experiments
T3 construct: expressed in transfected cells; plasmid TG-906 made by VectorBuilder
T3 sequence (Q03431 27-593 E90Y/S91D/E92V/E93P/K95Y/E96A): T1 sequence (Q03431 27-593 E90Y/S91D/E92V/E93P/K95Y/E96A/R186H) with H160R
Description: as §1, §2, §3

[4] = biological target: HA‐tagged human PTH1R‐V204E (human) (UniProt Q03431)
[5] = biological target: T4, PTH1R‐P132L (Homo sapiens, UniProt Q03431, P132L); assay: GloSensor cAMP signaling assay in transiently transfected GS-22a cells; assay type: cell-based; conditions: Table 1, percent of maximum response of the same ligand on PTH1R-WT, mean ± SEM of five experiments
T4 construct: expressed in transfected cells; plasmid TG-395 in pCDNA1
T4 sequence (Q03431 27-593 E90Y/S91D/E92V/E93P/K95Y/E96A/P132L): T1 sequence (Q03431 27-593 E90Y/S91D/E92V/E93P/K95Y/E96A/R186H) with P106L, H160R
Description: as §1, §2, §3

[6] = Table 2, percent of maximum response of the same ligand on PTHR1-WT, four or three (M-PTH(1-11)) experiments
[7] = Table 1, percent of maximum response of the same ligand on PTH1R-WT, mean ± SEM of five experiments, SEM

| Compound | EC50 [1] | Emax [1, 6] | EC50 [2] | Emax [2, 6] | EC50 [3] | Emax [3] | pEC50 ([1]; SEM) | Emax, % [1] | pEC50 ([2]; SEM) | Emax, % [2] | pEC50 [3] | Emax, % [3] | other results |
| --- | --- | --- | --- | --- | --- | --- | --- | --- | --- | --- | --- | --- | --- |
| CC[C@H](C)[C@H](NC(=O)[C@H](CCC(=O)O)NC(=O)C(C)(C)NC(=O)[C@@H](NC(=O)C1(N)CCCC1)C(C)C)C(=O)N[C@@H](CCC(N)=O)C(=O)N[C@@H](CC(C)C)C(=O)N[C@@H](CCSC)C(=O)N[C@@H](Cc1c[nH]cn1)C(=O)N[C@@H](CCC(N)=O)C(=O)N[C@@H](CCCCNC(=N)N)C(N)=O [M‐PTH(1‐11), modified (M)‐PTH(1‐11)] (H-[Ac5c]V[Aib]EIQLMHQ[hArg]-NH2) | 2.82 nM | 126 ± 14% | 0.759 nM | 80 ± 11% | 0.191 nM | 100% | – | – | – | – | – | – | – |
| human(h)PTH(1‐34) (peptide) | – | – | – | – | – | – | – | – | – | – | – | – | cAMP‐dependent GloSensor luminescence in transfected GS‐22a cells, potency: pEC50 with EC50 (nM) in parentheses [4]: 0.33 nM |
| SVSEIQLMHNLGKHLNSMERVEWLRKKL-NH2 [PTH(1‐28), hPTH(1‐28)] | 0.575 nM | 98 ± 10% | 0.447 nM | 78 ± 10% | 0.776 nM | 100% | – | – | – | – | – | – | – |
| CC[C@H](C)[C@H](NC(=O)[C@H](CCC(=O)O)NC(=O)[C@H](CO)NC(=O)[C@@H](NC(=O)[C@@H](N)CO)C(C)C)C(=O)N[C@@H](CCC(N)=O)C(=O)N[C@@H](CC(C)C)C(=O)N[C@@H](CCSC)C(=O)N[C@@H](Cc1c[nH]cn1)C(=O)N[C@@H](CC(N)=O)C(=O)N[C@@H](CC(C)C)C(=O)NCC(=O)N[C@@H](CCCCN)C(=O)N[C@@H](Cc1c[nH]cn1)C(=O)N[C@@H](CC(C)C)C(=O)N[C@@H](CC(N)=O)C(=O)N[C@@H](CO)C(=O)N[C@@H](CCSC)C(=O)N[C@@H](CCC(=O)O)C(=O)N[C@@H](CCCNC(=N)N)C(=O)N[C@H](C(=O)N[C@@H](CCC(=O)O)C(=O)N[C@@H](Cc1c[nH]c2ccccc12)C(=O)N[C@@H](CC(C)C)C(=O)N[C@@H](CCCNC(=N)N)C(=O)N[C@@H](CCCCN)C(=O)N[C@@H](CCCCN)C(=O)N[C@@H](CC(C)C)C(=O)N[C@@H](CCC(N)=O)C(=O)N[C@@H](CC(=O)O)C(=O)N[C@H](C(=O)N[C@@H](Cc1c[nH]cn1)C(=O)N[C@@H](CC(N)=O)C(=O)N[C@@H](Cc1ccccc1)C(N)=O)C(C)C)C(C)C [PTH(1‐34), human(h)PTH(1‐34)] | – | – | – | – | – | – | – | – | – | – | – | – | Emax [5]: ~45%; Emax, % ([5]; SEM): 44 ± 4%; Emax [1, 7]: 118 ± 4%; Emax [2, 7]: 81 ± 4% |
| hPTH(1‐84) [PTH(1-84)] | – | – | – | – | – | – | 9.25 | 96 ± 4% | 9.19 | 115 ± 11% | 9.05 | 100 ± 0% | – |
| hPTHrP(1‐141) [PTHrP(1-141)] | – | – | – | – | – | – | 8.90 | 108 ± 3% | 8.55 | 133 ± 12% | 8.65 | 100 ± 0% | – |
